target: T1, 6HIS-Tev-LRRK2 (1326-2527) (Homo sapiens, UniProt Q5S007); assay: Recombinant LRRK2 enzyme peptide substrate TR-FRET assay; assay type: biochemical; details: 60 nM LRRK2 enzyme; 10 uM ATP; read-out: pIC50 in the recombinant LRRK2 enzyme peptide substrate TR-FRET assay (converted)
T1 construct: A LRRK2 cDNA encoding residues 1326-2527 was received from Dundee University; made in house; host or cells: Spodoptera frugiperda Sf9 (baculovirus, pFB-HTb)
T1 sequence (Q5S007 1326-2527): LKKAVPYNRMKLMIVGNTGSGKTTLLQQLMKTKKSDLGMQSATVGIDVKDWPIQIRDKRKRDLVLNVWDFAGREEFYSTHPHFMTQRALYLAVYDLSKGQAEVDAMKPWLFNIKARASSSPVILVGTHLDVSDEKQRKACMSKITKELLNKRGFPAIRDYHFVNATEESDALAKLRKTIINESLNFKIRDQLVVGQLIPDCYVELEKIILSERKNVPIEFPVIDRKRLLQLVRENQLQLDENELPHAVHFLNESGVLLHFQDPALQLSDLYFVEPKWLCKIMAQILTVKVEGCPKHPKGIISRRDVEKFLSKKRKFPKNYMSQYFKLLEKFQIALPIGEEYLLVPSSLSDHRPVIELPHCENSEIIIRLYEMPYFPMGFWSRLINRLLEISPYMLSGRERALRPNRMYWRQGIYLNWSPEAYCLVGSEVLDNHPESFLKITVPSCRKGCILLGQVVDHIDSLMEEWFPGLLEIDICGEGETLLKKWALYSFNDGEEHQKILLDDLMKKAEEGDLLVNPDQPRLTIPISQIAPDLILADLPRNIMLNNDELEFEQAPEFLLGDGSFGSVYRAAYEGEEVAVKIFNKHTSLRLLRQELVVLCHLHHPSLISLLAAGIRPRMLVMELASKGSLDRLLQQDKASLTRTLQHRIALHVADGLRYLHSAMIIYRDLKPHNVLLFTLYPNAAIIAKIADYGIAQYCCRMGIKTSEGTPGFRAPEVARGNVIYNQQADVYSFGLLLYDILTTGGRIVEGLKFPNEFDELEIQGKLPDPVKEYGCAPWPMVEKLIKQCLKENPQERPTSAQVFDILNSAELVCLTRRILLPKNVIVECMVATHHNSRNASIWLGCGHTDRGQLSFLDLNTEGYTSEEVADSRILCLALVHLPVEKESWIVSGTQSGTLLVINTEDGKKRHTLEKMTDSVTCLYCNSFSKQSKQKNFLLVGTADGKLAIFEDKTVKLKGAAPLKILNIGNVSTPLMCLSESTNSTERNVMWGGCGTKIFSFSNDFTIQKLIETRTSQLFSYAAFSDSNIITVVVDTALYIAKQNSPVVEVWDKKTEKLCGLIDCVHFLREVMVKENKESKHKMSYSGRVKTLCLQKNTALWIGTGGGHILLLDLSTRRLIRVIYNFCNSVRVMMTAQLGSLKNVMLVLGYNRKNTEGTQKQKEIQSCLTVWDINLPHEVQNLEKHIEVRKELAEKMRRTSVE
Experimental: A LRRK2 cDNA encoding residues 1326-2527 was received from Dundee University (described in M. Jaleel et al., 2007, Biochem J, 405: 407-417). This gene fragment was subcloned into pFB-HTb (Invitrogen) using BamHI and NotI restriction sites. The LRRK2 plasmid was recombined into the baculovirus genome according to the BAC-to-BAC protocol described by Invitrogen. Transfection into Spodoptera frugiperda (Sf9) insect cells was performed using Cellfectin (Invitrogen), according to the manufacturer's protocol to generate P1 and P2 baculovirus stocks.
Sf9 cells were grown in HyClone SFX (Thermo Scientific) growth media at 27° C., 80 rpm in shake flask until of a sufficient volume to inoculate a bioreactor. The cells were grown in a 20 liter working volume Wave bioreactor (GE Healthcare) at 27° C., 50% dissolved oxygen and an agitation rate 22 rocks per minute, 10 degree rock angle, 200 ml/min air with a cell concentration of approximately 6×e6 cells/ml. The cells were infected with P2 Baculovirus at a multiplicity of infection (MOI) of 3. The cultivation was continued for a 48 hour expression phase. The infected cells were removed from the growth media by centrifugation at 2500 g using a Sorvall RC 3C Plus centrifuge at 2500 g for 20 minutes. The cell pellet was immediately frozen and subsequently supplied for purification.
A 260 g pellet was allowed to thaw in a water bath at 27° C. with 800 ml lysis buffer/buffer A (50 mm Tris-HCl pH 8.5, 300 mM NaCl, 1 mm DTT, 10% glycerol, 1 ml/L calbiochem complete protease inhibitor cocktail and benzonase (50 ul/800 ml)) before being dounce homogenised on ice using 20 strokes per 100 ml. The suspension was packed in ice and sonicated at 50% amplitude for 3 min 10 sec on/off using a ¾″ probe. The suspension was then centrifuged at 100,000 g for 90 min, at 4° C.
The lysate (700 ml) was decanted from the insoluble pellet and contacted for 3 h at 4 C with 10 ml His bind Ni NTA resin by end over end mixing. The resin was recovered by centrifugation, 3000 g, 5 min at 4 C, and packed in an XK16 column. The column was then washed with 10 column volumes buffer A, 10 column volumes buffer B (buffer A+1M NaCl) and 10 column volumes buffer C (buffer A+20 mM imidazole). The column was then eluted with 15 column volumes buffer D (buffer A+300 mM imidazole) collecting 2 ml fractions. All washes and elution were conducted at 4 ml/min.
Fractions identified by SDS-PAGE as containing protein of interest were pooled and loaded directly onto a 320 ml SEC Superdex 200 pg column that was pre-equilibrated with buffer E (50 mM Tris-HCl pH 8.5, 300 mM NaCl, 10% glycerol, 1 mM DTT). The column was loaded and eluted with 1.2 column volumes buffer E at 2 ml/min collecting 2 ml fractions. Fractions identified by SDS-PAGE as containing protein of interest were tested for activity.
Production of Biotin-Loner LRRKtide
The peptide (biotin-[…]-OH) was assembled at a […] scale using FMOC solid phase peptide synthesis on an ACT 357 MPS automated peptide synthesizer. The resulting crude peptide was cleaved from the resin using a 95:2.5:2.5 mix of trifluoroacetic acid: triisopropylsilane: water. The crude cleaved peptide was purified by reverse phase HPLC, eluting with a 5-35% gradient of 0.1% trifluoroacetic acid/acetonitrile in 0.1% trifluoroacetic acid/water.
Recombinant LRRK2 Enzyme Peptide Substrate TR-FRET Assay
This assay for LRRK2 inhibition is based on the detection of phosphorylation of the peptide ‘longer LRRKtide’ (biotin-[…]-OH) using a time resolved-fluorescence resonance energy transfer (TR-FRET) assay. It uses an antibody labelled europium chelate donor, W-1024 (Eu) and Streptavidin-Surelight APC acceptor (APC). When in close proximity, the excitation of Eu at 330 nm leads to energy transfer to APC with emission of light at 665 nm,
Assay Protocol • 1. A 10 mM test compound was dissolved in 100% DMSO and serially diluted 1 in 4. […]

| Structure (SMILES) | IC50 |
| --- | --- |
| Cc1c(Nc2nc(OCC3CC3)c3cn[nH]c3n2)cnn1CC(C)(C)O [Example E24, 1-(4-((4-(cyclopropylmethoxy)-1H-pyrazolo-[3,4-d]-pyrimidin-6-yl)amino)-5-methyl-1H-pyrazol-1-yl)-2-methylpropan-2-ol] | ≤ 0.1 µM |
| CCOc1nc(Nc2cnn(C3CCCC3(C)O)c2C)nc2[nH]ccc12 (single isomer, unassigned) [Example E78, trans-2-(4-((4-ethoxy-7H-pyrrolo-[2,3-d]pyrimidin-2-yl)amino)-5-methyl-1H-pyrazol-1-yl)-1-methylcyclopentanol] | ≤ 0.1 µM |
| CCOc1nc(Nc2cn(C3CCN(C)CC3)nc2C)nc2[nH]ccc12 [Example E19, 4-ethoxy-N-(3-methyl-1-(1-methylpiperidin-4-yl)-1H-pyrazol-4-yl)-7H-pyrrolo-[2,3-d]-pyrimidin-2-amine] | ≤ 0.1 µM |

Source: patent publication US10618901B2 (GlaxoSmithKline Intellectual Property Development Limited, priority 2014, dated 2020)
